Results published in US11660300B2, “Method of maintaining oral health in animals” (Boehringer Ingelheim Animal Health USA Inc., priority 2006, dated 2023).

Tests used:
Type in all cases: in vivo
dental plaque = experiment: Presence of dental plaque (erythrosine staining) in beagle dogs given delmopinol dog snack; settings: for Number of sites with presence of dental plaque on the buccal surfaces: upper jaw (UJ), dogs 1-4 and Sum
Method: (§1) A study was carried out to investigate the effect of dog snacks containing delmopinol on gingivitis and calculus formation in beagle dogs. Eight female dogs were used in the study. […] During a pre-experimental period of four weeks, the teeth in the upper jaws of all dogs were scaled and polished professionally with a rubber cup, pumice and water, on a weekly basis. The teeth of the upper jaws were also thoroughly brushed with a toothbrush and water, for 2 minutes daily. The teeth in the lower jaws were not cleaned. During this pre-experimental period the dogs were fed a soft gingivitis-inducing diet. Using these procedures, two different clinical conditions prevailed in the dogs at the end of the pre-experimental period: in the upper jaw the gingiva was clinically healthy while in the lower jaws gingivitis prevailed. […] In the upper jaws, the presence of plaque and gingivitis was measured at the buccal surfaces of canines, first, second, third, fourth premolars and first molars. In the lower jaws the measurements were undertaken at the buccal surfaces of canines and first molars, in total […] were examined clinically. 12 surfaces were clinically healthy prior to the experimental period and 4 surfaces were not maintained with oral hygiene measures. All experimental procedures, (except the tooth brushing during the pre-experimental period) were performed with the dogs anaesthetized by intravenous Pentothal (Abbot, Belgium). […] The various measurements were taken on days 0, 14 and 28. Clinical photos were taken of the upper jaws at the same occasions as the measurements. The presence of plaque was scored following staining of the teeth with erythrosine dye. Plaque was noted if stained dental plaque was in contact with the buccal gingival margin.

gingivitis = experiment: Bleeding on probing (gingivitis) in beagle dogs given delmopinol dog snack; settings: for Number of sites with gingival bleeding at the buccal surfaces: dogs 1-4 and Sum
Method: as §1, with “Bleeding on probing” for “The presence of plaque”, “scored according to Löe, H and Silness, J (1963) Periodontal disease in pregnancy. Prevalence and severity. Acta Odontologica Scandinavia 21, 533-551. Presence of gingivitis was registered if bleeding occurred within 20 seconds” for “scored”, “gentle probing” for “staining”, “of” for “of the teeth with erythrosine dye. Plaque was noted if stained dental plaque was in contact with”

calculus formation = experiment: Calculus formation in beagle dogs given delmopinol dog snack; settings: for Number of teeth with calculus on the buccal surfaces of the teeth of the upper jaw: dogs 1-4 and Sum
Method: A study was carried out to investigate the effect of dog snacks containing delmopinol on gingivitis and calculus formation in beagle dogs. Eight female dogs were used in the study. […] During a pre-experimental period of four weeks, the teeth in the upper jaws of all dogs were scaled and polished professionally with a rubber cup, pumice and water, on a weekly basis. The teeth of the upper jaws were also thoroughly brushed with a toothbrush and water, for 2 minutes daily. The teeth in the lower jaws were not cleaned. During this pre-experimental period the dogs were fed a soft gingivitis-inducing diet. Using these procedures, two different clinical conditions prevailed in the dogs at the end of the pre-experimental period: in the upper jaw the gingiva was clinically healthy while in the lower jaws gingivitis prevailed. […] In the upper jaws, the presence of plaque and gingivitis was measured at the buccal surfaces of canines, first, second, third, fourth premolars and first molars. In the lower jaws the measurements were undertaken at the buccal surfaces of canines and first molars, in total […] were examined clinically. 12 surfaces were clinically healthy prior to the experimental period and 4 surfaces were not maintained with oral hygiene measures. All experimental procedures, (except the tooth brushing during the pre-experimental period) were performed with the dogs anaesthetized by intravenous Pentothal (Abbot, Belgium). […] The various measurements were taken on days 0, 14 and 28. Clinical photos were taken of the upper jaws at the same occasions as the measurements. Presence or absence of calculus was noted on the buccal surfaces of the teeth in the upper jaws.

## CCCC(CCC)CCCC1COCCN1CCO (stereo not drawn) [Delmopinol, 3-(4-propyl-heptyl)-4-(2-hydroxyethyl)morpholine]
Dental plaque; Day 0 (baseline), n = 48 sites in sum
  Number of sites with presence of dental plaque on the buccal surfaces: 0 sites
Dental plaque; Day 0 (baseline), n = 48 sites in sum, listed as delmopinol
  Number of sites with presence of dental plaque on the buccal surfaces: plaque free
Dental plaque; Day 14, upper jaw
  reduction in the presence of dental plaque relative the control dogs: around 20%
Dental plaque; Day 28 (14 days after last snack), n = 48
  Number of sites with presence of dental plaque on the buccal surfaces: all teeth
Dental plaque; snacks with or without the tested component
  plaque accumulation: did not alter
gingivitis; Day 0 (baseline), lower jaw (LJ), n = 16
  Number of sites with gingival bleeding at the buccal surfaces: 15 sites
gingivitis; Day 0 (baseline), upper jaw (UJ), n = 48
  Number of sites with gingival bleeding at the buccal surfaces: one
gingivitis; Day 14, lower jaw (LJ), n = 16
  Number of sites with gingival bleeding at the buccal surfaces: five
gingivitis; Day 14, upper jaw (UJ), n = 48
  Number of sites with gingival bleeding at the buccal surfaces: 13 sites
gingivitis; Day 28, lower jaw (LJ), n = 16
  Number of sites with gingival bleeding at the buccal surfaces: 12 sites
gingivitis; Day 28, upper jaw (UJ), n = 48
  Number of sites with gingival bleeding at the buccal surfaces: 21 sites
gingivitis; delmopinol added in the snack, snack alone 50%, lower jaw, day 0 to day 14
  reduction of established gingivitis: 69%
gingivitis; paired t-test p=0.05
  increase of inflammation after stopping pre-experimental oral hygiene, versus control group: significantly less
Calculus formation; Day 0 (baseline), n = 48 measured sites
  Number of teeth with calculus on the buccal surfaces of the teeth of the upper jaw: 0 teeth
Calculus formation; Day 0 (baseline), n = 48 measured sites, listed as delmopinol
  Number of teeth with calculus on the buccal surfaces of the teeth of the upper jaw: None
Calculus formation; Day 14, n = 48 measured sites
  Number of teeth with calculus on the buccal surfaces of the teeth of the upper jaw: 6 teeth
Calculus formation; Day 28, n = 48 measured sites
  Number of teeth with calculus on the buccal surfaces of the teeth of the upper jaw: 37 teeth
Calculus formation; in the presence of dental plaque and with a calculus-promoting soft diet
  calculus formation versus control: strongly reduced
